Results on 29 compounds are retold here after patent US6130204A (Merck & Co., Inc., priority 1998, dated 2000).

The test system of data set [1] is LNCaP prostate tumor cells. The data set can be described thus: In vitro cytotoxicity of peptidyl derivatives of doxorubicin (Alamar Blue assay). The class given is cell-based, human. As to conditions: FIG. 4, cells incubated 3 days at 37° C. The method, then:
The cytotoxicities of the non-cleaveable oligopeptide-doxorubicin conjugates, prepared as described in Example 4, against a line of cells which is known to be killed by unmodified doxorubicin were assessed with an Alamar Blue assay. Specifically, cell cultures of LNCaP prostate tumor cells, which are a human metastatic prostate adenocarcinoma isolated from a needle biopsy of a lymph node (LNCaP.FGC: American Type Culture Collection, ATCC CRL 1740), or DuPRO cells in 96 well plates were diluted with medium containing various concentrations of a given conjugate (final plate well volume of 200 μl). The cells were incubated for 3 days at 37° C. and then 20 μl of Alamar Blue was added to the assay well. The cells were further incubated and the assay plates were read on a EL-310 ELISA reader at the dual wavelengths of 570 and 600 nm at 4 and 7 hours after addition of Alamar Blue. Relative percentage viability at the various concentration of conjugate tested was then calculated versus control (no conjugate) cultures. Cytotoxicities of unmodified doxorubicin and unmodified oligopeptide were also assessed.
Background: The colour change of resazurin is a common sign of viable cells or microbes.

In the case of `COc1cccc2c1C(=O)c1c(O)c3c(c(O)c1C2=O)C[C@@](O)(C(=O)CO)C[C@@H]3O[C@H]1C[C@H](N)[C@H](O)[C@H](C)O1` [doxorubicin], in data set [1], the midpoint of the response, the EC50, lay at 300 nM.
With “Ac-AlaAsnGluIleSerTyrGln.vertline.SerAlaSerThrGlu-amide”, the cleaved bond entry in the data set with free PSA is recorded as “Gln-Ser”.
With “Ac-AlaAsnLysAlaSerTyrGln.vertline.SerAlaSerCys-amide”, the cleaved bond result in the data set with free PSA is recorded as “Gln-Ser”.
Still for that read-out and setting: to “Ac-AlaAsnLysAlaSerTyrGln.vertline.SerAlaSerThrGlu-amide” belongs “Gln-Ser”; to “Ac-AlaAsnLysIleSerTyrGln.vertline.SerAlaLysThrGlu-amide”, “Gln-Ser”.
The same measure, in the same setting: to “Ac-AlaAsnLysIleSerTyrGln.vertline.SerAlaSerThrGlu-amide” belongs “Gln-Ser”; to “Ac-AlaAsnLysIleSerTyrGln.vertline.SerSerGlnThrGlu-amide”, “Gln-Ser”.
In the case of “Ac-AlaAsnLysIleSerTyrGln.vertline.SerSerLysThrGlu-amide”, in the data set on free PSA, the cleaved bond entry was “Gln-Ser”.
On the same count and under the same terms, to “Ac-AlaAsnLysIleSerTyrGln.vertline.SerSerSerThrGlu-amide” belongs “Gln-Ser”.
On the same count and under the same terms, to “Ac-AlaAsnLysIleSerTyrGln.vertline.SerSerSerThrLeu” belongs “Gln-Ser”; to “Ac-AlaAsnLysIleSerTyrGln.vertline.SerSerSerThrLeu-amide”, “Gln-Ser”; to “Ac-AlaAsnLysIleSerTyrGln.vertline.SerSerThrGlu-amide”, “Gln-Ser”.
Same read-out and setting: to “Ac-AlaAsnLysIleSerTyrGln.vertline.SerThrGlu-amide” belongs “Gln-Ser”; to “Ac-AlaAsnLysIleSerTyrTyr.vertline.SerAlaSerThrGlu-amide”, “Tyr-Ser”; to “Ac-AlaAsnLysIleSerTyrTyr.vertline.SerSerSerThrGlu-amide”, “Tyr-Ser”.
Regarding “Ac-AlaAsnLysSerTyrGln.vertline.SerSerThrGlu-amide”, in the data set with free PSA, the cleaved bond entry is listed as “Gln-Ser”.
For “Ac-AlaAsnSerTyrGln.vertline.SerSerSerThrGlu-amide”, in the data set on free PSA, the cleaved bond entry is on record as “Gln-Ser”.
On the same count and under the same terms, for “Ac-AlaAspLysAlaLysTyrGln.vertline.SerSer(Cha)-NHNH2” the value was “Gln-Ser”; for “Ac-AlaSerTyrGln.vertline.SerSerLeu-amide”, “Gln-Ser”.
The same measure, in the same setting: for “Ac-AlaSerTyrGln.vertline.SerSerSerThrGlu-amide” the value was “Gln-Ser”; for “Ac-AlaSerTyrGln.vertline.SerSerThrGlu-amide”, “Gln-Ser”.
Same read-out and setting: to “Ac-AsnLysIleSerTyrGln.vertline.SerSer-amide” belongs “Gln-Ser”.
Regarding “Ac-LysIleSerTyrGln.vertline.SerSer-amide”, the cleaved bond entry in the data set with free PSA is reported as “Gln-Ser”.
Still for that read-out and setting: for “Ac-SerTyrGln.vertline.SerSerSerThrGlu-amide” the value was “Gln-Ser”; for “Ac-SerTyrGln.vertline.SerSerThrGlu-amide”, “Gln-Ser”; for “Ac-hArg(Cha)Gln.vertline.SerSerSer(ethylester-Leu)”, “Gln-Ser”.
Same read-out and setting: to “Ac-hArgTyrGln.vertline.SerSerSer(Ethylester-Leu)” belongs “Gln-Ser”.
As for Ac-hArgTyrGln.vertline.SerSerSer(MeLeu), the cleaved bond entry in the data set on free PSA was “Gln-Ser”.
On the same count and under the same terms, for “AlaAsnLysIleSerTyrGln.vertline.SerSerSerThrGlu-amide” the value was “Gln-Ser”.
